Earlier results as cited in paper PMC8924334, “Synthesis of [^11C]carbonyl-labeled cyclohexyl (5-(2-acetamidobenzo[d]thiazol-6-yl)-2-methylpyridin-3-yl)carbamate ([^11C-carbonyl]PK68) as a potential PET tracer for receptor-interacting protein 1 kinase” (EJNMMI Radiopharmacy and Chemistry, 2022).
Where two headings read alike, the source gives them in different places.

Legend:
RIPK1 [1] = system: RIPK1; design: method as in Degterev et al. 2005; conditions: ref Degterev et al. 2005; cited from earlier work
melanoma (B16F10) = system: melanoma (B16F10); design: method as in Hou et al. 2019; conditions: B16F10-bearing mice; ref Hou et al. 2019; cited from earlier work
RIPK1 [2] = system: RIPK1; design: method as in Harris et al. 2017; conditions: human cells; ref Harris et al. 2017; cited from earlier work
RIPK1 [3] = system: RIPK1; design: method as in Harris et al. 2017, 2019; conditions: rodents; ref Harris et al. 2017, 2019; cited from earlier work
RIPK1 [4] = system: RIPK1; design: method as in Hou et al. 2019; conditions: human cell line; ref Hou et al. 2019; cited from earlier work
RIPK1 [5] = system: RIPK1; design: method as in Hou et al. 2019; conditions: mouse cell line; ref Hou et al. 2019; cited from earlier work

| SMILES | EC50 (RIPK1 [1]) | number of tumor metastases (melanoma (B16F10)) | other results |
| --- | --- | --- | --- |
| CN1C(=O)C(Cc2c[nH]c3ccccc23)NC1=S (centres unmarked) [compound 1, Necrostatin-1] | 490 nM | significant reduction in the number of tumor metastases |  |
| CN1C(=O)NC(Cc2c[nH]c3c(Cl)cccc23)C1=O (centres unmarked) [compound 2, 7-Cl-O-Nec-1] | 210 nM |  |  |
| CN1C(=O)[C@@H](NC(=O)c2n[nH]c(Cc3ccccc3)n2)COc2ccccc21 [compound 3] |  |  | IC50 (RIPK1 [2]): 6.3 nM; IC50 (RIPK1 [3]): > 1000 nM |
| CC(=O)Nc1nc2ccc(-c3cnc(C)c(NC(=O)OC4CCCCC4)c3)cc2s1 [PK68, cyclohexyl (5-(2-acetamidobenzo[d]thiazol-6-yl)-2-methylpyridin-3-yl)carbamate] |  | significant reduction in the number of tumor metastases | IC50 (RIPK1 [4]): 23 nM; IC50 (RIPK1 [5]): 13 nM |
